Test results published in ChEMBL document CHEMBL1770110, “Pyrimido[4,5-d]azepines as potent and selective 5-HT2C receptor agonists: design, synthesis, and evaluation of PF-3246799 as a treatment for urinary incontinence” (Bioorg Med Chem Lett, 2011).
Blank lines part the entries; values can stand above or below the molecule they belong to. Active and inactive are the calls of the source. The rule behind the calls is not given here.

Experiments:
[1] = molecular target: T1, 5-hydroxytryptamine receptor 2C (Homo sapiens) (UniProt P28335); experiment: Agonist activity at human 5HT2C receptor expressed in CHO-K1 cells assessed as increase of fluorescence based calcium mobilization at 10 uM by FLIPR assay relative to control; type: functional, cell-based
T1 sequence (whole entry): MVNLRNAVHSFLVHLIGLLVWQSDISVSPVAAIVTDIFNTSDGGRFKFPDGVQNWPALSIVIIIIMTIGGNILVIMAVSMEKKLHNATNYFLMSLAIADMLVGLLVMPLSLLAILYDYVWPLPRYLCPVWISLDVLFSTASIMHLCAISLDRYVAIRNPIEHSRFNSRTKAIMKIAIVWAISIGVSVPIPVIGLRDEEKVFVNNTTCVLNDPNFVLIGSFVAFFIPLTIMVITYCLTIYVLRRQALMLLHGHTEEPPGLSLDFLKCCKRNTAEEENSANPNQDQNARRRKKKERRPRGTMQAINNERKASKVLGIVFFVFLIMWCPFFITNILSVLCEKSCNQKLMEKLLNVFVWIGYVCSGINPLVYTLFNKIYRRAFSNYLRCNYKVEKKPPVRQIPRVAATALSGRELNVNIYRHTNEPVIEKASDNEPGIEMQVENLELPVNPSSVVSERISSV

[2] = molecular target: T2, 5-hydroxytryptamine receptor 2B (Homo sapiens, UniProt P41595); experiment: Agonist activity at human 5HT2B receptor expressed in CHO-K1 cells assessed as increase of fluorescence based calcium mobilization by FLIPR assay; type: functional, cell-based
T2 sequence (P41595 whole entry): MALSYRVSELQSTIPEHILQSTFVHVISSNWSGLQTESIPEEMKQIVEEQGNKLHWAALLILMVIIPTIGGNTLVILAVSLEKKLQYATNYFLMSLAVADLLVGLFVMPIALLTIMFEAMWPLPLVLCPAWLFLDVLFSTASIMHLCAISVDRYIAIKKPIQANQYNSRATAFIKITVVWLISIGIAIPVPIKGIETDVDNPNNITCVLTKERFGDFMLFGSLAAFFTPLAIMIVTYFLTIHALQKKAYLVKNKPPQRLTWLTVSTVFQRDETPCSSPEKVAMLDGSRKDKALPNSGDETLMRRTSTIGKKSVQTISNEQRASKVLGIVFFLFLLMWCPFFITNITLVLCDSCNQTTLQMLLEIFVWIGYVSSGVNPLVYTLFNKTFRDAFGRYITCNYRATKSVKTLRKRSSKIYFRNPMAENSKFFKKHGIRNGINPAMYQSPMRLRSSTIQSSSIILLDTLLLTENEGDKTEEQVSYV

[3] = molecular target: T2, 5-hydroxytryptamine receptor 2B; experiment: Agonist activity at human 5HT2B receptor expressed in CHO-K1 cells assessed as increase of fluorescence based calcium mobilization by FLIPR assay relative to control; type: functional, cell-based
[4] = molecular target: T1, 5-hydroxytryptamine receptor 2C (Homo sapiens); experiment: Agonist activity at human 5HT2C receptor expressed in CHO-K1 cells assessed as increase of fluorescence based calcium mobilization by FLIPR assay relative to control; type: functional, cell-based
[5] = molecular target: T3, 5-hydroxytryptamine receptor 2C (Homo sapiens, UniProt P28335); experiment: Agonist activity at human 5HT2C receptor expressed in CHO-K1 cells assessed as increase of fluorescence based calcium mobilization by FLIPR assay; type: functional, cell-based
T3 sequence (P28335 whole entry): T1 sequence (whole entry)

[6] = Aqueous solubility of the compound at pH 1.5 to 11.7; type: physicochemical; conditions: buffer
[7] = Chemical stability of compound at pH 1 to 12; type: physicochemical; conditions: buffer
[8] = tested on: Canis familiaris; experiment: Increase of peak urethral pressure in iv dosed anesthetized dog stress urinary incontinence model; type: functional, organism-based; conditions: Canis lupus familiaris; Urethra
[9] = molecular target: 5-hydroxytryptamine receptor 2A (Homo sapiens) (UniProt P28223); experiment: Agonist activity at human recombinant 5HT2A receptor expressed in Swiss mouse 3T3 cells increase of fluorescence based calcium mobilization by FLIPR assay relative to control; type: functional, cell-based; conditions: NIH3T3
5-hydroxytryptamine receptor 2A (Homo sapiens), sequence (P28223 whole entry): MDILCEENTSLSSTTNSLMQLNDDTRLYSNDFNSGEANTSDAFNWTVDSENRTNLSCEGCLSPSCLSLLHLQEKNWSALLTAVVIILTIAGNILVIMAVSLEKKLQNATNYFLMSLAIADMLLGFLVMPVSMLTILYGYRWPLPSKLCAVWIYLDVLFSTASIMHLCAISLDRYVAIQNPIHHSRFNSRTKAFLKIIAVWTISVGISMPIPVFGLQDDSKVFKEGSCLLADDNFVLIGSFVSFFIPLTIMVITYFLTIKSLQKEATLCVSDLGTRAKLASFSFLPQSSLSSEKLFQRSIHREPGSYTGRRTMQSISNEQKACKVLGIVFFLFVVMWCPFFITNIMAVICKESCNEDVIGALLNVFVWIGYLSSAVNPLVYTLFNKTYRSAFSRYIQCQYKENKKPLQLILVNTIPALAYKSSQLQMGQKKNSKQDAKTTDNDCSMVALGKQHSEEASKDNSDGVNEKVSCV

[10] = tested on: Rattus norvegicus; experiment: Inhibition of 5HT2A receptor-mediated head twitches in rat at 10 mg/kg, po; type: functional, organism-based; parameters: dose 10 mg/kg
[11] = molecular target: T4, Muscarinic acetylcholine receptor M1 (Homo sapiens) (UniProt P11229); experiment: Agonist activity at human muscarinic M1 receptor up to 10 uM; type: functional
T4 sequence (whole entry): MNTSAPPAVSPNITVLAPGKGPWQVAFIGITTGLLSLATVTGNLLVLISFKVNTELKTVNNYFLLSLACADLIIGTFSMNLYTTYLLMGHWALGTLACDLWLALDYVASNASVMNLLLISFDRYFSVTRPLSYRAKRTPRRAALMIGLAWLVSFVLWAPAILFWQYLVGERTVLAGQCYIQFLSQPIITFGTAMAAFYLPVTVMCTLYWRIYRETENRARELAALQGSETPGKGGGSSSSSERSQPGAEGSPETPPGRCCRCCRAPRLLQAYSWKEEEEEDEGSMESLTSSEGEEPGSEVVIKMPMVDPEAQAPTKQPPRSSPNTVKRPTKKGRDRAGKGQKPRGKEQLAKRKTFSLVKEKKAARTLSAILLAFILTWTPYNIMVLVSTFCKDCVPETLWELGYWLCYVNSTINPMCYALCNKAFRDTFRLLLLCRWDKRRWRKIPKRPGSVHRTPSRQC

[12] = Binding affinity to L-type Ca2+ channel dihydropyridine binding site at 10000 nM
[13] = molecular target: T2, 5-hydroxytryptamine receptor 2B; experiment: Agonist activity at human recombinant 5HT2B receptor expressed in Swiss mouse 3T3 cells assessed as increase of fluorescence based calcium mobilization at 10 uM by FLIPR assay; type: functional, cell-based; conditions: NIH3T3
[14] = Binding affinity to sodium channel site 2 at 10000 nM
[15] = molecular target: T5, 5-hydroxytryptamine receptor 2C (Canis lupus familiaris) (UniProt Q60F97); experiment: Agonist activity at dog 5HT2C receptor ralative to control; type: functional
T5 sequence (whole entry): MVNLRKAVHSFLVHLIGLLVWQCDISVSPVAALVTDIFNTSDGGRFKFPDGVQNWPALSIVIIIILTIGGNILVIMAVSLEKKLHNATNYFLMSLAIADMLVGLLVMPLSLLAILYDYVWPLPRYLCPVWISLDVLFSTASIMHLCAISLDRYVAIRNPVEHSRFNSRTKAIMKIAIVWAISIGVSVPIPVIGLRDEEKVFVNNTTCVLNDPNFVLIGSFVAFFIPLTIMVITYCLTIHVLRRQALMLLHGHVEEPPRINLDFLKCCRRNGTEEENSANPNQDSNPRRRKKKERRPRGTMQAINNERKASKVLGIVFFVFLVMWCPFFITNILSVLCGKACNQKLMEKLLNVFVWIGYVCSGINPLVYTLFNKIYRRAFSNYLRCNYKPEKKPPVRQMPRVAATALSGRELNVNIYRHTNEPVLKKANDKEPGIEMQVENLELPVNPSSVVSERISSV

[16] = molecular target: T2, 5-hydroxytryptamine receptor 2B; experiment: Agonist activity at human 5HT2B receptor expressed in CHO-K1 cells assessed as increase of fluorescence based calcium mobilization at 10 uM by FLIPR assay relative to control; type: functional, cell-based
[17] = molecular target: Voltage-gated sodium channel type V alpha polypeptide (Oryctolagus cuniculus) (UniProt Q2MZF0); experiment: Inhibition of Nav1.5 in rabbit cardiac myocytes up to 100 uM; type: cell-based
[18] = molecular target: 5-hydroxytryptamine receptor 2A (Canis lupus familiaris) (UniProt O46635); experiment: Agonist activity at 5HT2A receptor in dog femoral artery relative to control; type: functional, tissue-based
5-hydroxytryptamine receptor 2A (Canis lupus familiaris), sequence (O46635 whole entry): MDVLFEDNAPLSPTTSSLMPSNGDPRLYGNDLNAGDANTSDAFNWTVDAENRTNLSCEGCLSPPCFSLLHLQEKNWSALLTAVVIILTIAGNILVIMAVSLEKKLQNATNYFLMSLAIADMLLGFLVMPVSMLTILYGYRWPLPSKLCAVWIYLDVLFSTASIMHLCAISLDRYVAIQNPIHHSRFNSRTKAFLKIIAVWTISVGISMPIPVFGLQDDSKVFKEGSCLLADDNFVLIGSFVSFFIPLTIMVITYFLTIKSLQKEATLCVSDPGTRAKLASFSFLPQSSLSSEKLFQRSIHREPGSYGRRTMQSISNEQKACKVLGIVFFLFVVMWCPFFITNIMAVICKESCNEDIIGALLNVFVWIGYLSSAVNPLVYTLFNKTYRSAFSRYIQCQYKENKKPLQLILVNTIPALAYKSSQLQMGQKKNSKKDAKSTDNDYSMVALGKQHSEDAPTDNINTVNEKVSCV

[19] = molecular target: T6, Muscarinic acetylcholine receptor M5 (Homo sapiens) (UniProt P08912); experiment: Agonist activity at human muscarinic M5 receptor up to 10 uM; type: functional
T6 sequence (whole entry): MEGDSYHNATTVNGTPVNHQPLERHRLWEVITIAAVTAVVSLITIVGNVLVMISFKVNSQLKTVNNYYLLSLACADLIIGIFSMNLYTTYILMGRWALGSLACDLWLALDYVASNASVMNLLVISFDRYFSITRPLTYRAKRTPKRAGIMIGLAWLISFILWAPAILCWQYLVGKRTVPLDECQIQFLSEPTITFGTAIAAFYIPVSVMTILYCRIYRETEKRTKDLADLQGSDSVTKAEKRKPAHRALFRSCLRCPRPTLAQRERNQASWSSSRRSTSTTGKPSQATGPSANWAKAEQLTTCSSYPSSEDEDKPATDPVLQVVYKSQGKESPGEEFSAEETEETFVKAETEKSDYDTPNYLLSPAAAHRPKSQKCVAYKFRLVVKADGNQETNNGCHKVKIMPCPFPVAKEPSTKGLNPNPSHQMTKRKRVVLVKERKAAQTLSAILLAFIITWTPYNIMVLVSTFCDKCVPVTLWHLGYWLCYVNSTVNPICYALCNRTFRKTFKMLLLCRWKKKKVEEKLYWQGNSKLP

[20] = Binding affinity to L-type calcium channel diltiazem binding site at 10000 nM
[21] = Binding affinity to L-type calcium channel verapamil binding site at 10000 nM
[22] = molecular target: T3, 5-hydroxytryptamine receptor 2C; experiment: Displacement of [3H][…] from human 5HT2C receptor expressed in Swiss mouse 3T3 cells by scintillation proximity assay; type: cell-based, NIH3T3

Emax [1]: 64%
Structure (SMILES): c1ccc(Cc2ncc3c(n2)CCNC3)cc1

EC50 [5]: 380 nM
Emax [4]: 92%
Structure (SMILES): c1ccc(-c2ncc3c(n2)CNCC3)cc1

Emax [1]: 27%
Structure (SMILES): c1ccc(Cc2ncc3c(n2)CNCC3)cc1

Activity [4]: inactive
Structure (SMILES): c1ccc(-c2ncc3c(n2)CCNCC3)cc1

Activity [4]: inactive
Structure (SMILES): c1ccc(CCCc2ncc3c(n2)CNCC3)cc1

Activity [4]: inactive
Structure (SMILES): c1ccc(CCc2ncc3c(n2)CNCC3)cc1

Emax [9]: 82%
Activity [11]: inactive
inhibition [12]: < 20%
Emax [13]: 33%
inhibition [14]: < 20%
Activity [15]: 81%
Emax [16]: 33%
Emax [18]: 51%
Activity [19]: inactive
inhibition [20]: < 20%
inhibition [21]: < 20%
Structure (SMILES): c1ccc(Cc2ncc3c(n2)CCNCC3)cc1
Activity [8]: Dose-dependent effect
inhibition [10]: inactive
Activity [17]: inactive

The remaining lines, values behind:

Structure (SMILES): Cc1ccc(Cc2ncc3c(n2)CCNCC3)cc1
EC50 [2]: 164 nM
Emax [3]: 80%
Emax [4]: 63%

Structure (SMILES): Clc1ccc(Cc2ncc3c(n2)CCNCC3)cc1
EC50 [2]: 60 nM
Emax [3]: 62%
Emax [4]: 65%

Structure (SMILES): Fc1cccc(Cc2ncc3c(n2)CCNCC3)c1
EC50 [2]: 183 nM
Emax [3]: 66%
Emax [4]: 67%

Structure (SMILES): O=C(O)/C=C/C(=O)O.c1ccc(Cc2ncc3c(n2)CCNCC3)cc1
solubility [6]: > 10000 µg/mL
Stability [7]: Stable

Structure (SMILES): Clc1ccccc1Cc1ncc2c(n1)CCNCC2
EC50 [2]: 178 nM
Emax [1]: 38%
Emax [3]: 36%
Ki [22]: 1850 nM

Structure (SMILES): Fc1ccc(Cc2ncc3c(n2)CCNCC3)cc1
EC50 [2]: 610 nM
Emax [3]: 90%
Emax [4]: 60%
